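Dose response: 5 concentrations. Exposure: 48 h. Format: 96-well plates. Endpoint: linear interpolation; highest concentration if not reached. GI50 marks 50% less growth. Definition used: TGI = concentration required for complete inhibition of growth.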
Key:
Test in all cases: inhibition of tumour cell growth, NCI panel, 48 h
DLD-1 colon = tested on: DLD-1 colon
KM20L2 colon = tested on: KM20L2 colon
M19-MEL melanoma = tested on: M19-MEL melanoma
NCI-H522 lung = tested on: NCI-H522 lung
OVCAR-3 ovarian = tested on: OVCAR-3 ovarian
SK-MEL-5 melanoma = tested on: SK-MEL-5 melanoma
SNB-19 CNS = tested on: SNB-19 CNS
U251 CNS = tested on: U251 CNS
UACC-62 melanoma = tested on: UACC-62 melanoma
HS 578T breast = tested on: HS 578T breast

SMILES	TGI (DLD-1 colon)	TGI (KM20L2 colon)	TGI (M19-MEL melanoma)	TGI (NCI-H522 lung)	TGI (OVCAR-3 ovarian)	TGI (SK-MEL-5 melanoma)	TGI (SNB-19 CNS)	TGI (U251 CNS)	TGI (UACC-62 melanoma)	GI50 (DLD-1 colon)	GI50 (KM20L2 colon)	GI50 (NCI-H522 lung)	GI50 (OVCAR-3 ovarian)	GI50 (SK-MEL-5 melanoma)	GI50 (SNB-19 CNS)	GI50 (U251 CNS)	GI50 (UACC-62 melanoma)	GI50 (HS 578T breast)	TGI (HS 578T breast)
NC(=S)NNc1c([N+](=O)[O-])cnn(-c2ccccc2)c1=O	28.5 µM	29.8 µM	26.5 µM	33.6 µM	32.1 µM	33.2 µM	33.9 µM	30.7 µM	24.4 µM	–	–	–	–	–	–	–	–	–	–
CCCCN(CCCC)c1c([N+](=O)[O-])c(=O)nc2ccccn12	> 100 µM	> 100 µM	> 100 µM	36.4 µM	> 100 µM	> 100 µM	> 100 µM	> 100 µM	> 100 µM	–	–	–	–	–	–	–	–	–	–
CCC1=NC(CO)[C@H](c2ccccc2)O1 (stereo partly specified)	> 100 µM	> 100 µM	> 100 µM	–	> 100 µM	> 100 µM	> 100 µM	> 100 µM	> 100 µM	–	–	–	–	–	–	–	–	–	–
O=[N+]([O-])c1cnn(C2=CNc3ccccc3N=C2)c1	> 100 µM	> 100 µM	> 100 µM	–	> 100 µM	–	> 100 µM	> 100 µM	> 100 µM	–	–	–	–	–	–	–	–	–	–
Cc1cccc(-n2c(=S)[nH]c3c(sc(=O)n3-c3ccccc3C)c2=O)c1	> 100 µM	> 100 µM	> 100 µM	> 100 µM	> 100 µM	> 100 µM	> 100 µM	> 100 µM	> 100 µM	–	–	–	–	–	–	–	–	–	–
CN1CC[C@]2(C)c3ccc(O)cc3CC3CCCC1C32C (stereo partly specified)	> 100 µM	> 100 µM	> 100 µM	> 100 µM	> 100 µM	> 100 µM	> 100 µM	> 100 µM	> 100 µM	–	–	–	–	–	–	–	–	–	–
C/C=C/C=C/C=C/C=C/C(=O)O	> 100 µM	> 100 µM	–	> 100 µM	> 100 µM	> 100 µM	> 100 µM	> 100 µM	> 100 µM	–	–	–	–	–	–	–	–	–	–
Cc1ccc(-c2cc(-c3ccco3)c(C#N)c(=O)n2C2OC(OC(=O)c3ccccc3)C(OC(=O)c3ccccc3)C2OC(=O)c2ccccc2)cc1 (stereo unspecified)	> 100 µM	> 100 µM	> 100 µM	> 100 µM	> 100 µM	–	–	–	> 100 µM	–	–	–	–	–	–	–	–	–	–
COC1OC(CO)C(O)C1N (stereo unspecified)	> 100 µM	> 100 µM	–	> 100 µM	> 100 µM	> 100 µM	> 100 µM	> 100 µM	> 100 µM	–	–	–	–	–	–	–	–	–	–
N.N.N.N.O=C([O-])C(Cl)Cl.O=C([O-])C(Cl)Cl.[Co+3].[O-][Cl+3]([O-])([O-])[O-]	> 100 µM	> 100 µM	–	> 100 µM	> 100 µM	> 100 µM	> 100 µM	> 100 µM	> 100 µM	> 100 µM	> 100 µM	> 100 µM	> 100 µM	> 100 µM	> 100 µM	> 100 µM	> 100 µM	–	–
COc1ccc(/C=C\c2cc(OC)c(O[Si](C)(C)C(C)(C)C)c(OC)c2)cc1	> 100 µM	> 100 µM	> 100 µM	> 100 µM	> 100 µM	–	> 100 µM	42.2 µM	> 100 µM	–	–	–	–	–	–	–	–	–	–
CCOC(=O)c1cc(/C=C/C(C)=C/C(=O)OC)oc1C	> 100 µM	> 100 µM	> 100 µM	> 100 µM	> 100 µM	–	> 100 µM	> 100 µM	> 100 µM	–	–	–	–	–	–	–	–	–	–
C/C(CCc1ccccc1)=N\NC(N)=S	> 100 µM	> 100 µM	> 100 µM	–	> 100 µM	> 100 µM	–	> 100 µM	> 100 µM	–	–	–	–	–	–	–	–	–	–
Fc1cc2[nH]ncc2c2c3c(c(-c4cn[nH]c4C(F)(F)F)nc12)C1CCC3C1 (stereo unspecified)	–	–	–	3.38 µM	4.87 µM	1.52 µM	6.57 µM	5.09 µM	3.39 µM	–	–	0.906 µM	1.39 µM	0.74 µM	1.59 µM	1.4 µM	0.878 µM	0.808 µM	2.67 µM
COc1cc2c(=O)n(CCN)c3c4cc5c(cc4ccc3c2cc1OC)OCO5	–	–	–	1.83 µM	2.26 µM	2.15 µM	1.97 µM	1.75 µM	1.96 µM	–	–	0.167 µM	0.919 µM	0.834 µM	0.414 µM	0.287 µM	0.332 µM	2.8 µM	11.7 µM
CCN(CC)C(=S)Oc1cc2oc(=O)cc(C)c2cc1Cl	–	–	–	> 100 µM	> 100 µM	> 100 µM	> 100 µM	> 100 µM	73.7 µM	–	–	–	–	–	–	–	–	–	> 100 µM
Cc1nc2sccn2c1-c1csc(Nc2cccc(Cl)c2C)n1	–	–	–	26.5 µM	32.2 µM	3.92 µM	> 100 µM	19.6 µM	19.8 µM	–	–	3.94 µM	5.23 µM	1.52 µM	12.6 µM	4.37 µM	3.93 µM	4.56 µM	51.2 µM
COC(=O)C(=O)C(C(=O)C(=O)Nc1cccc(C(C)=O)c1)c1nc2ccccc2[nH]c1=O (stereo unspecified)	> 100 µM	> 100 µM	> 100 µM	> 100 µM	> 100 µM	> 100 µM	> 100 µM	–	> 100 µM	–	–	–	–	–	–	–	–	–	–
Cc1cc(C)c(C(=O)c2no[n+]([O-])c2C(=O)c2c(C)cc(C)c(Br)c2C)c(C)c1Br	30.7 µM	32.9 µM	25.7 µM	23.4 µM	29.5 µM	–	29.1 µM	25 µM	23.7 µM	–	–	–	–	–	–	–	–	–	–
COc1cc(C(=O)Nc2cc3c(cc2Oc2cc(C)cc(C)c2)C(=O)N(C)[C@@H](CC(=O)N(C)O)C(=O)N3)c(Br)c(OC)c1OC	–	–	–	< 0.00333 µM	< 0.00333 µM	0.0116 µM	0.00576 µM	0.00506 µM	< 0.00333 µM	–	–	< 0.00333 µM	< 0.00333 µM	< 0.00333 µM	< 0.00333 µM	< 0.00333 µM	< 0.00333 µM	< 0.00333 µM	0.00422 µM
Nc1ccc(C(=O)CC(N)C(=O)O)cc1O (stereo unspecified)	–	–	–	> 100 µM	> 100 µM	> 100 µM	> 100 µM	> 100 µM	> 100 µM	–	–	–	–	–	–	–	–	–	> 100 µM
CN(C)CC1CCC/C1=N\O (stereo unspecified)	> 100 µM	> 100 µM	> 100 µM	> 100 µM	> 100 µM	> 100 µM	–	> 100 µM	> 100 µM	–	–	–	–	–	–	–	–	–	–

Reference: PubChem BioAssay (NCI)
